# Values quoted from earlier work in US20110123445A1, “TREATMENT MONITORING” (priority 2008, published 2011).
# Columns and labels:
# phosphorylated ERK = details: phase II studies; all tumour types, including melanoma, breast, colon, and lung
# MEK = details: Swiss 3T3 cells; Alessi et al 1995
# [1] = phase I trial, 57 cancer patients; Adjei et al 2008
# ERK phosphorylation = details: at the recommended phase II dose; Adjei et al 2008
# tumour growth = details: Sebolt-Leopold et al 1999, 2004
structure (smiles),measurement,setting,value
O=C(NOC[C@H](O)CO)c1ccc(F)c(F)c1Nc1ccc(I)cc1F [PD0325901],phosphorylated ERK suppression in biopsied tumour tissue,phosphorylated ERK,phosphorylated ERK suppression at all dose levels
COc1cccc(-c2cc(=O)c3ccccc3o2)c1N [PD098059],suppression of MEK activation by a variety of agonists,MEK,80-90%
Cn1cnc2c(F)c(Nc3ccc(Br)cc3Cl)c(C(=O)NOCCO)cc21 [AZD6244],tolerability,[1],well tolerated
same,inhibition of ERK phosphorylation,ERK phosphorylation,demonstrable inhibition
O=C(NOCC1CC1)c1ccc(F)c(F)c1Nc1ccc(I)cc1Cl [PD184352],inhibition of tumour growth in vivo,tumour growth,inhibit tumour growth in vivo
